These results are taken from publication doi:10.1101/2022.06.06.494947v1 (biorxiv, 2022).

In this assay the target is His-mASPDH (mouse ASPDH) (Mus musculus, UniProt Q9DCQ2). Briefly: ITC, one-site model. It is filed as binding. (Isothermal titration calorimetry measures the heat released or taken up as one component is titrated into another.)
His-mASPDH (mouse ASPDH), sequence (Q9DCQ2 whole entry): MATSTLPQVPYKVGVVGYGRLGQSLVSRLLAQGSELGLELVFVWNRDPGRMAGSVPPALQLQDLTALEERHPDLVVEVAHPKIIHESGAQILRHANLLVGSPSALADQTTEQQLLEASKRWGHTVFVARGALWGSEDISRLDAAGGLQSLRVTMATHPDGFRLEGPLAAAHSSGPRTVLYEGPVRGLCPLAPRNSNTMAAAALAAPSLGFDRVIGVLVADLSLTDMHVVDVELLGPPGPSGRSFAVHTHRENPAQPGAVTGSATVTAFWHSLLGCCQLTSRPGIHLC

Consider `Nc1ncnc2c1ncn2[C@@H]1O[C@H](COP(=O)(O)OP(=O)(O)OC[C@H]2O[C@@H]([n+]3cccc(C(=O)O)c3)[C@H](O)[C@@H]2O)[C@@H](O)[C@H]1OP(=O)(O)O` [NAADP], for which binding was put at a Kd of 455 ± 231 nM.
Regarding `NC(=O)c1ccc[n+]([C@@H]2O[C@H](COP(=O)(O)OP(=O)(O)OC[C@H]3O[C@@H](n4cnc5c(N)ncnc54)[C@H](OP(=O)(O)O)[C@@H]3O)[C@@H](O)[C@H]2O)c1` [NADP], the dissociation constant Kd (usually the equilibrium constant for the complex coming apart) stood at 958 ± 203 nM.
